Measurements taken from patent publication US20240083861A1, “HSD17B13 INHIBITORS AND USES THEREOF” (FL2022-001, Inc., priority 2020, published 2024).

Target: T1, Recombinant human HSD17B13 enzyme (Homo sapiens, UniProt Q7Z5P4)
T1 sequence (Q7Z5P4 20-300): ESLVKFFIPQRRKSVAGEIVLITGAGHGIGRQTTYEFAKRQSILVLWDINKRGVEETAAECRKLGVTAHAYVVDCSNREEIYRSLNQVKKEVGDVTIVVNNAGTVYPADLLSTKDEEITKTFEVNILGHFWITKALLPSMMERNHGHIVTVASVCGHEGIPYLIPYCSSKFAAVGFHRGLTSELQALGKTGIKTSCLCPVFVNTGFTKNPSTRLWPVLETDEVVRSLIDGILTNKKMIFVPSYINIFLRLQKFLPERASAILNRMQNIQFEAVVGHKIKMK
Assay: HSD17b13 NAD(P)H-Glo biochemical assay
Conditions: 50 uM estradiol, 1 mM NAD+, NAD(P)H-Glo luminescence; read-out: HSD17β13 IC50
Outline: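 Luminescent NAD(P)H-Glo read-out, taken after 1 hour at RT, measured cofactor reduction. Substrate and cofactor were estradiol at 50 uM and NAD+ at 1 mM final, reacted with the recombinant human enzyme for 3 hours at 37° C in 20 mM Tris pH7.4, 0.002% Tween-20, 0.02% BSA. Compound was pre-incubated with enzyme for 20 minutes at RT.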

Compound | IC50
Cn1nc(-c2cc(C(F)(F)F)c(F)c(O)c2F)c2cnc(N3CCC(O)(c4ccncc4)CC3)nc21 [Compound 18.97, 1-(3-(2,4-Difluoro-3-hydroxy-5-(trifluoromethyl)phenyl)-1-methyl-1H-pyrazolo[3,4-d]pyrimidin-6-yl)-4-(pyridin-4-yl)piperidin-4-ol] | < 100 nM
Cn1nc(-c2cc(C(F)(F)F)c(F)c(O)c2F)c2cnc(N3CCCCC3COc3ccccc3)nc21 (stereo not shown) [Compound 18.98, 2,6-Difluoro-3-(1-methyl-6-(2-(phenoxymethyl)piperidin-1-yl)-1H-pyrazolo[3,4-d]pyrimidin-3-yl)-5-(trifluoromethyl)phenol] | < 100 nM
Cn1nc(-c2cc(C(F)(F)F)c(F)c(O)c2F)c2cnc(N3CCC4(CCCO4)CC3)nc21 [Compound 18.99, 2,6-Difluoro-3-(1-methyl-6-(1-oxa-8-azaspiro[4.5]decan-8-yl)-1H-pyrazolo[3,4-d]pyrimidin-3-y1)-5-(trifluoromethyl)phenol] | < 100 nM
COC1(CO)CCN(c2ncc3c(-c4cc(C(F)(F)F)c(F)c(O)c4F)nn(C)c3n2)CC1 [Compound 18.100, 2,6-Difluoro-3-(6-(4-(hydroxymethyl)-4-methoxypiperidin-1-y1)-1-methyl-1H-pyrazolo[3,4-d]pyrimidin-3-yl)-5-(trifluoromethyl)phenol] | < 100 nM
CN1CCN(c2ncc3c(-c4cc(C(F)(F)F)c(F)c(O)c4F)nn(C)c3n2)CC1c1ncc[nH]1 (stereo not shown) [Compound 18.101, 3-(6-(3-(1H-Imidazol-2-yl)-4-methylpiperazin-1-y1)-1-methyl-1H-pyrazolo[3,4-d]pyrimidin-3-yl)-2,6-difluoro-5-(trifluoromethyl)phenol] | 100 to 1000 nM
Cn1nc(-c2cc(C(F)(F)F)c(F)c(O)c2F)c2cnc(N3CCOCC3(C)C)nc21 [Compound 18.102, 3-(6-(3,3-Dimethylmorpholino)-1-methyl-1H-pyrazolo[3,4-d]pyrimidin-3-y1)-2,6-difluoro-5-(trifluoromethyl)phenol] | < 100 nM
Cn1nc(-c2cc(C(F)(F)F)c(F)c(O)c2F)c2cnc(N3CCOC(C)(C)C3)nc21 [Compound 18.103, 3-(6-(2,2-Dimethylmorpholino)-1-methyl-1H-pyrazolo[3,4-d]pyrimidin-3-y1)-2,6-difluoro-5-(trifluoromethyl)phenol] | < 100 nM
Cn1nc(-c2cc(C(F)(F)F)c(F)c(O)c2F)c2cnc(N3CCOCC3C3CCC3)nc21 (stereo not shown) [Compound 18.104, 3-(6-(3-Cyclobutylmorpholino)-1-methyl-1H-pyrazolo[3,4-d]pyrimidin-3-y1)-2,6-difluoro-5-(trifluoromethyl)phenol] | < 100 nM
Cn1nc(-c2cc(C(F)(F)F)c(F)c(O)c2F)c2cnc(N3CCOC4(CC4)C3)nc21 [Compound 18.105, 2,6-Difluoro-3-(1-methyl-6-(4-oxa-7-azaspiro[2.5]octan-7-y1)-1H-pyrazolo[3,4-d]pyrimidin-3-y1)-5-(trifluoromethyl)phenol] | < 100 nM
Cn1nc(-c2cc(C(F)(F)F)c(F)c(O)c2F)c2cnc(N3CCOC4(CCCC4)C3)nc21 [Compound 18.106, 2,6-Difluoro-3-(1-methyl-6-(6-oxa-9-azaspiro[4.5]decan-9-yl)-1H-pyrazolo[3,4-d]pyrimidin-3-y1)-5-(trifluoromethyl)phenol] | < 100 nM
Cn1nc(-c2cc(C(F)(F)F)c(F)c(O)c2F)c2cnc(N3CCOCC3CC(F)(F)F)nc21 (stereo not shown) [Compound 18.107, 2,6-Difluoro-3-(1-methyl-6-(3-(2,2,2-trifluoroethyl)morpholino)-1H-pyrazolo[3,4-d]pyrimidin-3-y1)-5-(trifluoromethyl)phenol] | < 100 nM
Cn1nc(-c2cc(C(F)(F)F)c(F)c(O)c2F)c2cnc(N3CCC(C)(C)CC3)nc21 [Compound 18.108, 3-(6-(4,4-Dimethylpiperidin-1-yl)-1-methyl-1H-pyrazolo[3,4-d]pyrimidin-3-yl)-2,6-difluoro-5-(trifluoromethyl)phenol] | < 100 nM
Cn1nc(-c2cc(C(F)(F)F)c(F)c(O)c2F)c2cnc(N3CCN(S(C)(=O)=O)[C@@H](c4ccccc4)C3)nc21 [Compound 18.109, (S)-2,6-Difluoro-3-(1-methyl-6-(4-(methylsulfony1)-3-phenylpiperazin-1-y1)-1H-pyrazolo[3,4-d]pyrimidin-3-y1)-5-(trifluoromethyl)phenol] | < 100 nM
Cn1nc(-c2cc(C(F)(F)F)c(F)c(O)c2F)c2cnc(N3CC4CC3CN4S(C)(=O)=O)nc21 (stereo not shown) [Compound 18.110, 2,6-Difluoro-3-(1-methyl-6-(5-(methylsulfony1)-2,5-diazabicyclo[2.2.1]heptan-2-y1)-1H-pyrazolo[3,4-d]pyrimidin-3-yl)-5-(trifluoromethyl)phenol] | < 100 nM
Cn1nc(-c2cc(C(F)(F)F)c(F)c(O)c2F)c2cnc(N3CC4CCC(C3)N4S(C)(=O)=O)nc21 [Compound 18.111, 2,6-Difluoro-3-(1-methyl-6-(8-(methylsulfony1)-3,8-diazabicyclo[3.2.1]octan-3-yl)-1H-pyrazolo[3,4-d]pyrimidin-3-y1)-5-(trifluoromethyl)phenol] | < 100 nM
Cn1nc(-c2cc(C(F)(F)F)c(F)c(O)c2F)c2cnc(N3CCN(S(C)(=O)=O)C4(COC4)C3)nc21 [Compound 18.112, 2,6-Difluoro-3-(1-methyl-6-(5-(methylsulfonyl)-2-oxa-5,8-diazaspiro[3.5]nonan-8-yl)-1H-pyrazolo[3,4-d]pyrimidin-3-y1)-5-(trifluoromethyl)phenol] | < 100 nM
Cn1nc(-c2cc(C(F)(F)F)c(F)c(O)c2F)c2cnc(N3CCOC(C4CCCCC4)C3)nc21 (stereo not shown) [Compound 18.113, 3-(6-(2-Cyclohexylmorpholino)-1-methyl-1H-pyrazolo[3,4-d]pyrimidin-3-yl)-2,6-difluoro-5-(trifluoromethyl)phenol] | < 100 nM
Cn1nc(-c2cc(C(F)(F)F)c(F)c(O)c2F)c2cnc(N3CCN(C(=O)c4ccccc4)CC3)nc21 [Compound 18.114, (4-(3-(2,4-Difluoro-3-hydroxy-5-(trifluoromethyl)phenyl)-1-methyl-1H-pyrazolo[3,4-d]pyrimidin-6-y1)piperazin-1-yl)(phenyl)methanone] | < 100 nM
Cn1nc(-c2cc(C(F)(F)F)c(F)c(O)c2F)c2cnc(N3CCN(C(=O)C4CCCCC4)CC3)nc21 [Compound 18.115, Cyclohexyl(4-(3-(2,4-difluoro-3-hydroxy-5-(trifluoromethyl)phenyl)-1-methyl-1H-pyrazolo[3,4-d]pyrimidin-6-yl)piperazin-1-yl)methanone] | < 100 nM
Cn1nc(-c2cc(C(F)(F)F)c(F)c(O)c2F)c2cnc(N3CCN(C(=O)Nc4ccccc4)CC3)nc21 [Compound 18.116, 4-(3-(2,4-Difluoro-3-hydroxy-5-(trifluoromethyl)phenyl)-1-methyl-1H-pyrazolo[3,4-d]pyrimidin-6-yl)-N-phenylpiperazine-1-carboxamide] | < 100 nM
Cn1nc(-c2cc(C(F)(F)F)c(F)c(O)c2F)c2cnc(N(Cc3ccccc3)C3CC3)nc21 [Compound 18.117, 3-(6-(Benzyl(cyclopropyl)amino)-1-methyl-1H-pyrazolo[3,4-d]pyrimidin-3-y1)-2,6-difluoro-5-(trifluoromethyl)phenol] | < 100 nM
Cn1nc(-c2cc(C(F)(F)F)c(F)c(O)c2F)c2cnc(N3CCN(S(C)(=O)=O)C(C#N)C3)nc21 (stereo not shown) [Compound 18.118, 4-(3-(2,4-Difluoro-3-hydroxy-5-(trifluoromethyl)phenyl)-1-methyl-1H-pyrazolo[3,4-d]pyrimidin-6-yl)-1-(methylsulfonyl)piperazine-2-carbonitrile] | < 100 nM
Cn1nc(-c2cc(C(F)(F)F)c(F)c(O)c2F)c2cnc(N3CCOC(C)(c4ccccc4)C3)nc21 (stereo not shown) [Compound 18.119, 2,6-Difluoro-3-(1-methyl-6-(2-methyl-2-phenylmorpholino)-1H-pyrazolo[3,4-d]pyrimidin-3-y1)-5-(trifluoromethyl)phenol] | < 100 nM
C[C@@H]1CN(C(=O)c2ccccc2)CCN1c1ncc2c(-c3cc(C(F)(F)F)c(F)c(O)c3F)nn(C)c2n1 [Compound 18.120, (R)-(4-(3-(2,4-Difluoro-3-hydroxy-5-(trifluoromethyl)phenyl)-1-methyl-1H-pyrazolo[3,4-d]pyrimidin-6-yl)-3-methylpiperazin-1-y1)(phenyl)methanone] | < 100 nM
Cn1nc(-c2cc(C(F)(F)F)c(F)c(O)c2F)c2cnc(N3CCN(C(=O)c4ccccn4)CC3)nc21 [Compound 18.121, (4-(3-(2,4-Difluoro-3-hydroxy-5-(trifluoromethyl)phenyl)-1-methyl-1H-pyrazolo[3,4-d]pyrimidin-6-yl)piperazin-1-yl)(pyridin-2-yl)methanone] | 100 to 1000 nM
Cn1nc(-c2cc(C(F)(F)F)c(F)c(O)c2F)c2cnc(N3CCN(C(=O)c4ccncc4)CC3)nc21 [Compound 18.122, (4-(3-(2,4-Difluoro-3-hydroxy-5-(trifluoromethyl)phenyl)-1-methyl-1H-pyrazolo[3,4-d]pyrimidin-6-y1)piperazin-1-yl)(pyridin-4-yl)methanone] | 100 to 1000 nM
Cn1nc(-c2cc(C(F)(F)F)c(F)c(O)c2F)c2cnc(N3CCN(C(=O)C4CC4)CC3)nc21 [Compound 18.123, Cyclopropyl(4-(3-(2,4-difluoro-3-hydroxy-5-(trifluoromethyl)phenyl)-1-methyl-1H-pyrazolo[3,4-d]pyrimidin-6-y1)piperazin-1-yl)methanone] | < 100 nM
Cn1nc(-c2cc(C(F)(F)F)c(F)c(O)c2F)c2cnc(N(Cc3ccccc3)C3CCC3)nc21 [Compound 18.124, 3-(6-(Benzyl(cyclobutyl)amino)-1-methyl-1H-pyrazolo[3,4-d]pyrimidin-3-y1)-2,6-difluoro-5-(trifluoromethyl)phenol] | < 100 nM
